Measured values reported in US6921665B2, “Selective antibody targeting of undifferentiated stem cells” (Roslin Institute (Edinburgh), priority 2001, dated 2005).

Assays:
[1] = system: H9 cell line; assay: Sensitivity of the H9 line to GCV after TPAC vector treatment; assay type: cell-based, human; conditions: subsequent studies
Excerpt: Thus, different hES cell lines respond to the TPAC vector.

[2] = system: normal BJ cells; assay: Ganciclovir treatment in vitro of normal cells carrying hTERT promoter/tk constructs; assay type: cell-based
Protocol: (§1) The ability of the hTERT promoter to specifically drive the expression of the thymidine kinase (tk) gene in tumor cells was tested using a variety of constructs: One construct, designated pGRN266, contains an EcoRI-FseI PCR fragment with the tk gene cloned into the EcoRI-FseI sites of pGRN263. pGRN263, containing approximately 2.5 kb of hTERT promoter sequence, is similar to pGRN150, but contains a neomycin gene as selection marker. pGRN267 contains an EcoRI-FseI PCR fragment with the tk gene cloned into the EcoRI-FseI sites of pGRN264. pGRN264, containing approximately 210 bp of hTERT promoter sequence, is similar to pGRN176, but contains a neomycin gene as selection marker. pGRN268 contains an EcoRI-XbaI PCR fragment with the tk gene cloned into the EcoRI-XbaI (unmethylated) sites of pGRN265. pGRN265, containing approximately 90 bp of hTERT promoter sequence, is similar to pGRN175, but contains a neomycin gene as selection marker.
(§2) These hTERT promoter/tk constructs, pGRN266, pGRN267 and pGRN268, were re-introduced into mammalian cells and tk/+stable clones (and/or mass populations) were selected. […] Ganciclovir treatment had no effect on normal BJ cells.

[3] = system: Undifferentiated H1 cells; assay: Total cell number of undifferentiated H1 hES cells by flow cytometry after TPAC vector and/or GCV; assay type: cell-based, human; conditions: GCV alone, 30 μM
Protocol: (§3) Undifferentiated H1 cells were plated into 24 well plates (1 confluent well of a 6 well plate split into 24 wells of a 24 well plate). After 48 h, some wells were infected with the TPAC vector at an MOI of 30 or 100. Four h after addition of the viral vector, medium was exchanged for new mouse embryonic fibroblast conditioned medium (mEF-CM); some wells received medium supplemented with 30 μM ganciclovir (GCV). Cells exposed to GCV were re-fed with mEF-CM containing 30 μM GCV daily for 4 days. On days 2,3, and 4 after the initiation of GCV treatment, wells were harvested and analyzed by flow cytometry to assess changes in 1) total cell number and 2) cell viability (measured by PI exclusion).

[4] = system: Undifferentiated H1 cells; assay: Cell viability (PI exclusion, cells in ES gate) of H1 hES cells after TPAC vector and/or GCV; assay type: cell-based, human; conditions: GCV alone
Protocol: as §3

[5] = system: tumor lines 143B, 293, HT1080, Bxpc-3', DAOY and NIH3T3; assay: Ganciclovir treatment in vitro of tk/+ tumor lines carrying hTERT promoter/tk constructs; assay type: cell-based; conditions: cells carrying pGRN266, pGRN267 or pGRN268
Protocol: as §1, §2

[6] = system: hES lines H1 and H7; assay: Comparison of different hES lines, total cell number after pGRN376 plus GCV; assay type: cell-based, human; conditions: two hES lines
Protocol: Undifferentiated hES of lines designated Hi and H7 cells were plated into 24 well plates (1 confluent well of a 6 well plate split into 24 wells of a 24 well plate). […] Four h after addition of the viral vector, medium was exchanged for new mEF-CM; some wells received medium supplemented with 20 μM GCV. Cells exposed to GCV were re-fed with mEF-CM containing GCV daily for 3 days. On day 4 after the initiation of GCV treatment, wells were harvested and analyzed by flow cytometry to assess changes in total cell number.

[7] = system: TPAC vector treated hES cells; assay: Titration of GCV in TPAC vector treated hES cells; assay type: cell-based, human; conditions: pGRN376 MOI 30; GCV 5-40 μM tested; day 2
Protocol: Undifferentiated Hi cells were plated into 24 well plates (1 confluent well of a 6 well plate split into 24 wells of a 24 well plate). After 48 h, some wells were infected with pGRN376 at an MOI of 30. Four h after addition of the viral vector, medium was exchanged for new mEF-CM; some wells received medium supplemented with 5, 10, 20, 30, or 40 μM ganciclovir (GCV). Cells exposed to GCV were re-fed with mEF-CM containing GCV daily for 2 days. On day 2 after the initiation of GCV treatment, wells were harvested and analyzed by flow cytometry to assess changes in total cell number, and cell viability (measured by PI exclusion).

[8] = system: hTERT expression; assay: RT-PCR for hTERT expression after differentiation factors; assay type: cell-based, human; conditions: after exposure of hES cells to the factor
Protocol: For radioactive relative quantification of individual gene products, QuantumRNA™ Alternate18S Internal Standard primers (Ambion, Austin Tex., USA) were employed according to the manufacturer's instructions. Briefly, the linear range of amplification of a particular primer pair was determined, then coamplified with the appropriate mixture of alternate18S primers:competimers to yield PCR products with coinciding linear ranges. Before addition of AmpliTaq™ (Roche) to PCR reactions, the enzyme was pre-incubated with the TaqStar™ antibody (ProMega) according to manufacturer's instructions. Radioactive PCR reactions were analyzed on 5% non-denaturing polyacrylamide gels, dried, and exposed to phosphoimage screens (Molecular Dynamics) for 1 hour. Screens were scanned with a Molecular Dynamics Storm 860 and band intensities were quantified using ImageQuant™ software. Results are expressed as the ratio of radioactivity incorporated into the hTERT or OCT-4 band, standardized to the radioactivity incorporated into the 18s band.
Primers and amplification conditions for particular markers are as follows. […]

[9] = system: hES cells; assay: Neuron formation from hES cells with neurotrophin growth factors (β-tubulin positive cell count); assay type: cell-based, human; conditions: 7 days of differentiation
Protocol: The effect of several members of the neurotrophin growth factor family was examined. hES cells were differentiated by harvesting with collagenase, dissociating, and reseeding onto poly-ornithine coated cover slips. The cells were plated into DMEM/F12+N2+10% FBS overnight. The following day, the serum was removed from the medium and replaced with 10 ng/mL human bFGF and the growth factor being tested. After 24 hours, bFGF was removed from the medium. These cultures were fed every other day. They were fixed after 7 days of differentiation and immunostained for analysis. The number of neurons was evaluated by counting cells positive for β-tubulin. Cultures maintained in the presence of 10 ng/mL brain derived neurotrophic factor (BDNF) formed approximately 3-fold more neurons than the control cultures. Cultures maintained in neurotrophin-3 (1 ng/mL) formed approximately 2-fold more neurons than control cultures.

With `Nc1nc(O)c2ncn(COC(CO)CO)c2n1` [GCV, ganciclovir] the “sensitivity to GCV after TPAC vector treatment” value [1] was “highly sensitive”, the effect of ganciclovir [2] was “no effect” and the “cells as percent of the control wells” value ([3]; day 2) was “approximately 55%”. The “cells as percent of the control wells” value ([3]; day 4) was 40%, the “cells in ES gate” value ([4]; day 2 (control 85%)) was 75% and the “cells in ES gate” value ([4]; day 3 (control 82%)) was 68%. For the same molecule, the “cells in ES gate” value ([4]; day 4 (control 65%)) was 50%, the “effect of ganciclovir on tk/+ cells” value [5] was “selective destruction of all tumor lines tested” and the “sensitivity to GCV after treatment with the TPAC vector” value [6] was “sensitive”. For the same molecule, the “optimal GCV concentration” value [7] was ~20 µM.

`C[S+](C)[O-]` [dimethyl sulfoxide] was tested, and the “expression of hTERT” value [8] was “markedly decreased”.

B1: BDNF: brain derived neurotrophic factor, member of the neurotrophin growth factor family (protein, UniProt P23560 19-247, looked up)
Neurotrophic factor BDNF …: APMKEANIRGQGGLAYPGVRTHGTLESVNGPKAGSRGLTSLADTFEHVIEELLDEDQKVRPNEENNKDADLYTSRVMLSSQVPLEPPLLFLLEEYKNYLDAANMSMRVRRHSDPARRGELSVCDSISEWVTAADKKTAVDMSGGTVTVLEKVPVSKGQLKQYFYETKCNPMGYTKEGCRGIDKRHWNSQCRTTQSYVRALTMDSKKRIGWRFIRIDTSCVCTLTIKRGR
B1 was tested, and the “neurons formed relative to control cultures” value ([9]; 10 ng/mL) was “approximately 3 fold”.

B2: neurotrophin-3: member of the neurotrophin growth factor family (protein, UniProt P20783 139-257, looked up)
Neurotrophin-3: YAEHKSHRGEYSVCDSESLWVTDKSSAIDIRGHQVTVLGEIKTGNSPVKQYFYETRCKEARPVKNGCRGIDDKHWNSQCKTSQTYVRALTSENNKLVGWRWIRIDTSCVCALSRKIGRT
With B2 the “neurons formed relative to control cultures” value ([9]; 1 ng/mL) was “approximately 2 fold”.
